Laboratory results: the supplement of paper PMC10307832

Columns and labels:
Assay in all cases: relative viability (nuclei count vs DMSO), 5 days (fraction); higher = more cells survive
201T = test system: 201T
Outline: (§1)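 Five library-drug doses in √10 steps were combined with a fixed anchor-drug dose, or a single drug was given alone, by pin tool to lung cancer cell lines in 1536-well plates the day after seeding. Nuclei were stained and counted after 5 days. Relative viability is the nuclei count in treated wells over that in vehicle wells, taken as the median of duplicate plates.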

COR-L23 = test system: COR-L23
Outline: as §1

EPLC-272H = test system: EPLC-272H
Outline: as §1

H3255 = test system: H3255
Outline: as §1

HCC-15 = test system: HCC-15
Outline: as §1

LOU-NH91 = test system: LOU-NH91
Outline: as §1

NCI-H1563 = test system: NCI-H1563
Outline: as §1

NCI-H1650 = test system: NCI-H1650
Outline: as §1

NCI-H1734 = test system: NCI-H1734
Outline: as §1

NCI-H2023 = test system: NCI-H2023
Outline: as §1

NCI-H2170 = test system: NCI-H2170
Outline: as §1

NCI-H2347 = test system: NCI-H2347
Outline: as §1

NCI-H2405 = test system: NCI-H2405
Outline: as §1

NCI-H3122 = test system: NCI-H3122
Outline: as §1

NCI-H322M = test system: NCI-H322M
Outline: as §1

NCI-H441 = test system: NCI-H441
Outline: as §1

NCI-H520 = test system: NCI-H520
Outline: as §1

NCI-H647 = test system: NCI-H647
Outline: as §1

PC-14 = test system: PC-14
Outline: as §1

UMC-11 = test system: UMC-11
Outline: as §1

Nc1ccn([C@@H]2O[C@H](CO)[C@@H](O)[C@@H]2O)c(=O)n1 [Cytarabine] + C[C@@H](Oc1cc(-c2cnn(C3CCNCC3)c2)cnc1N)c1c(Cl)ccc(F)c1Cl [Crizotinib] (partner 1 µM)
relative viability (201T; first compound 0.005 µM): 1.04 | relative viability (201T; first compound 0.01581 µM): 0.999 | relative viability (201T; first compound 0.05 µM): 1.01 | relative viability (201T; first compound 0.1581 µM): 0.97 | relative viability (201T; first compound 0.5 µM): 1 | relative viability (COR-L23; first compound 0.005 µM): 0.578 | relative viability (COR-L23; first compound 0.01581 µM): 0.631 | relative viability (COR-L23; first compound 0.05 µM): 0.405 | relative viability (COR-L23; first compound 0.1581 µM): 0.166 | relative viability (COR-L23; first compound 0.5 µM): 0.122 | relative viability (EPLC-272H; first compound 0.005 µM): 0.667 | relative viability (EPLC-272H; first compound 0.01581 µM): 0.379 | relative viability (EPLC-272H; first compound 0.05 µM): 0.577 | relative viability (EPLC-272H; first compound 0.1581 µM): 0.326 | relative viability (EPLC-272H; first compound 0.5 µM): 0.368 | relative viability (H3255; first compound 0.005 µM): 0.76 | relative viability (H3255; first compound 0.01581 µM): 0.828 | relative viability (H3255; first compound 0.05 µM): 0.776 | relative viability (H3255; first compound 0.1581 µM): 0.724 | relative viability (H3255; first compound 0.5 µM): 0.667 | relative viability (HCC-15; first compound 0.005 µM): 0.765 | relative viability (HCC-15; first compound 0.01581 µM): 0.895 | relative viability (HCC-15; first compound 0.05 µM): 0.84 | relative viability (HCC-15; first compound 0.1581 µM): 0.67 | relative viability (HCC-15; first compound 0.5 µM): 0.591 | relative viability (LOU-NH91; first compound 0.005 µM): 0.753 | relative viability (LOU-NH91; first compound 0.01581 µM): 0.714 | relative viability (LOU-NH91; first compound 0.05 µM): 0.637 | relative viability (LOU-NH91; first compound 0.1581 µM): 0.511 | relative viability (LOU-NH91; first compound 0.5 µM): 0.56 | relative viability (NCI-H1563; first compound 0.005 µM): 0.806 | relative viability (NCI-H1563; first compound 0.01581 µM): 0.916 | relative viability (NCI-H1563; first compound 0.05 µM): 0.852 | relative viability (NCI-H1563; first compound 0.1581 µM): 0.809 | relative viability (NCI-H1563; first compound 0.5 µM): 0.606 | relative viability (NCI-H1650; first compound 0.005 µM): 0.752 | relative viability (NCI-H1650; first compound 0.01581 µM): 1.05 | relative viability (NCI-H1650; first compound 0.05 µM): 0.544 | relative viability (NCI-H1650; first compound 0.1581 µM): 0.315 | relative viability (NCI-H1650; first compound 0.5 µM): 0.188 | relative viability (NCI-H1734; first compound 0.005 µM): 0.473 | relative viability (NCI-H1734; first compound 0.01581 µM): 0.326 | relative viability (NCI-H1734; first compound 0.05 µM): 0.23 | relative viability (NCI-H1734; first compound 0.1581 µM): 0.143 | relative viability (NCI-H1734; first compound 0.5 µM): 0.157 | relative viability (NCI-H2023; first compound 0.005 µM): 0.366 | relative viability (NCI-H2023; first compound 0.01581 µM): 0.368 | relative viability (NCI-H2023; first compound 0.05 µM): 0.113 | relative viability (NCI-H2023; first compound 0.1581 µM): 0.101 | relative viability (NCI-H2023; first compound 0.5 µM): 0.0749 | relative viability (NCI-H2170; first compound 0.01581 µM): 0.925 | relative viability (NCI-H2170; first compound 0.05 µM): 0.912 | relative viability (NCI-H2170; first compound 0.1581 µM): 0.605 | relative viability (NCI-H2170; first compound 0.5 µM): 0.483 | relative viability (NCI-H2347; first compound 0.005 µM): 0.827 | relative viability (NCI-H2347; first compound 0.01581 µM): 0.719 | relative viability (NCI-H2347; first compound 0.05 µM): 0.573 | relative viability (NCI-H2347; first compound 0.1581 µM): 0.642 | relative viability (NCI-H2347; first compound 0.5 µM): 0.467 | relative viability (NCI-H2405; first compound 0.005 µM): 0.754 | relative viability (NCI-H2405; first compound 0.01581 µM): 0.693 | relative viability (NCI-H2405; first compound 0.05 µM): 0.592 | relative viability (NCI-H2405; first compound 0.1581 µM): 0.464 | relative viability (NCI-H2405; first compound 0.5 µM): 0.327 | relative viability (NCI-H3122; first compound 0.005 µM): 0.264 | relative viability (NCI-H3122; first compound 0.01581 µM): 0.239 | relative viability (NCI-H3122; first compound 0.05 µM): 0.244 | relative viability (NCI-H3122; first compound 0.1581 µM): 0.192 | relative viability (NCI-H3122; first compound 0.5 µM): 0.204 | relative viability (NCI-H322M; first compound 0.005 µM): 0.858 | relative viability (NCI-H322M; first compound 0.01581 µM): 0.676 | relative viability (NCI-H322M; first compound 0.05 µM): 0.534 | relative viability (NCI-H322M; first compound 0.1581 µM): 0.366 | relative viability (NCI-H322M; first compound 0.5 µM): 0.318 | relative viability (NCI-H441; first compound 0.005 µM): 0.776 | relative viability (NCI-H441; first compound 0.01581 µM): 0.824 | relative viability (NCI-H441; first compound 0.05 µM): 0.598 | relative viability (NCI-H441; first compound 0.1581 µM): 0.199 | relative viability (NCI-H441; first compound 0.5 µM): 0.165 | relative viability (NCI-H520; first compound 0.005 µM): 0.56 | relative viability (NCI-H520; first compound 0.01581 µM): 0.758 | relative viability (NCI-H520; first compound 0.05 µM): 0.831 | relative viability (NCI-H520; first compound 0.1581 µM): 0.56 | relative viability (NCI-H520; first compound 0.5 µM): 0.469 | relative viability (NCI-H647; first compound 0.005 µM): 0.613 | relative viability (NCI-H647; first compound 0.01581 µM): 0.518 | relative viability (NCI-H647; first compound 0.05 µM): 0.243 | relative viability (NCI-H647; first compound 0.1581 µM): 0.11 | relative viability (NCI-H647; first compound 0.5 µM): 0.116 | relative viability (PC-14; first compound 0.005 µM): 0.805 | relative viability (PC-14; first compound 0.01581 µM): 0.84 | relative viability (PC-14; first compound 0.05 µM): 0.778 | relative viability (PC-14; first compound 0.1581 µM): 0.439 | relative viability (PC-14; first compound 0.5 µM): 0.2 | relative viability (UMC-11; first compound 0.005 µM): 0.454 | relative viability (UMC-11; first compound 0.01581 µM): 0.52 | relative viability (UMC-11; first compound 0.05 µM): 0.336 | relative viability (UMC-11; first compound 0.1581 µM): 0.267 | relative viability (UMC-11; first compound 0.5 µM): 0.205
